Converted amounts (≈) assume the structure as drawn. The source made the active and inactive calls. The calls are words filed in the database; no cut-off is given here.
Columns and labels:
Staphylococcus aureus [1] = experiment: Antibacterial activity against Staphylococcus aureus USA300 incubated for 16 to 24 hrs by broth microdilution method; assay type: functional; conditions: time 16-24 hrs
Staphylococcus aureus [2] = experiment: Antibacterial activity against Staphylococcus aureus USA400 incubated for 16 to 24 hrs by broth microdilution method; assay type: functional; conditions: time 16-24 hrs
Staphylococcus aureus [3] = experiment: Antibacterial activity against Staphylococcus aureus DU1090 incubated for 16 to 24 hrs by broth microdilution method; assay type: functional; conditions: time 16-24 hrs
Staphylococcus aureus [4] = experiment: Antibacterial activity against Staphylococcus aureus NCTC 8325-4 incubated for 16 to 24 hrs by broth microdilution method; assay type: functional; conditions: time 16-24 hrs
Staphylococcus aureus [5] = experiment: Antibacterial activity against Staphylococcus aureus ATCC 25923 incubated for 16 to 24 hrs by broth microdilution method; assay type: functional; conditions: time 16-24 hrs
Staphylococcus aureus [6] = experiment: Antibacterial activity against Staphylococcus aureus ATCC 25904 incubated for 16 to 24 hrs by broth microdilution method; assay type: functional; conditions: time 16-24 hrs
Staphylococcus aureus [7] = experiment: Antibacterial activity against Staphylococcus aureus ATCC 29213 incubated for 16 to 24 hrs by broth microdilution method; assay type: functional; conditions: time 16-24 hrs
Staphylococcus aureus [8] = experiment: Antibacterial activity against methicillin-resistant Staphylococcus aureus MRSA 2 incubated for 16 to 24 hrs by broth microdilution method; assay type: functional; conditions: time 16-24 hrs
Streptococcus suis [9] = experiment: Antibacterial activity against Streptococcus suis ZY05719 incubated for 16 to 24 hrs by broth microdilution method; assay type: functional; conditions: time 16-24 hrs
Klebsiella pneumoniae [10] = experiment: Antibacterial activity against Klebsiella pneumoniae 13b5 incubated for 16 to 24 hrs by broth microdilution method; assay type: functional; conditions: time 16-24 hrs
Klebsiella pneumoniae [11] = experiment: Antibacterial activity against Klebsiella pneumoniae E8.31 incubated for 16 to 24 hrs by broth microdilution method; assay type: functional; conditions: time 16-24 hrs
Staphylococcus aureus [12] = experiment: Bactericidal activity against methicillin-resistant Staphylococcus aureus MRSA 1; assay type: functional
Staphylococcus aureus [13] = experiment: Bactericidal activity against Staphylococcus aureus USA300; assay type: functional
Staphylococcus aureus [14] = experiment: Bactericidal activity against Staphylococcus aureus USA400; assay type: functional
Staphylococcus aureus [15] = experiment: Bactericidal activity against Staphylococcus aureus DU1090; assay type: functional
Listeria monocytogenes [16] = experiment: Bactericidal activity against Listeria monocytogenes ATCC 19115; assay type: functional
Listeria monocytogenes [17] = experiment: Bactericidal activity against Listeria monocytogenes EGD; assay type: functional
Streptococcus suis [18] = experiment: Bactericidal activity against Streptococcus suis ZY05719; assay type: functional
Acinetobacter baumannii [19] = experiment: Bactericidal activity against Acinetobacter baumannii ATCC 17978; assay type: functional
Acinetobacter baumannii [20] = experiment: Bactericidal activity against Acinetobacter baumannii ATCC 19606; assay type: functional
Klebsiella pneumoniae [21] = experiment: Bactericidal activity against Klebsiella pneumoniae 13b5; assay type: functional
Staphylococcus aureus [22] = experiment: Bactericidal activity against methicillin-resistant Staphylococcus aureus USA300 at >= 1 ug/ml measured upto 24 hrs by time-kill assay relative to control; assay type: functional; conditions: dose >= 1 µg/ml
Listeria monocytogenes [23] = experiment: Bactericidal activity against Listeria monocytogenes EGD measured upto 24 hrs by time-kill assay; assay type: functional, organism-based
Staphylococcus aureus [24] = experiment: Inhibition of resistance development in Staphylococcus aureus USA300 incubated for 24 hrs measured after 14 passages by broth microdilution method; assay type: functional, organism-based
Listeria monocytogenes [25] = experiment: Inhibition of biofilm formation in Listeria monocytogenes EGD incubated for 24 hrs by crystal violet staining based analysis; assay type: functional, organism-based; conditions: dose <= 0.13 µg/ml
Staphylococcus aureus [26] = experiment: Eradication of mature biofilm formation in Staphylococcus aureus USA300 incubated for 12 hrs by crystal violet staining based analysis; assay type: functional, organism-based
Staphylococcus aureus [27] = experiment: Disruption of cell membrane integrity in Staphylococcus aureus USA300 assessed as irregular cell structures at 4 to 8 times MIC by TEM/SEM analysis; assay type: functional, organism-based
Staphylococcus aureus [28] = experiment: Disruption of cell membrane integrity in Staphylococcus aureus USA300 assessed as indistinct cytoplasmic borders at 4 to 8 times MIC by TEM/SEM analysis; assay type: functional, organism-based
Staphylococcus aureus [29] = experiment: Disruption of cell membrane integrity in Staphylococcus aureus USA300 assessed as swelling at 4 to 8 times MIC by TEM/SEM analysis; assay type: functional, organism-based
Staphylococcus aureus [30] = experiment: Disruption of cell membrane integrity in Staphylococcus aureus USA300 assessed as visible cavity formation on surface at 4 to 8 times MIC by TEM/SEM analysis; assay type: functional, organism-based
Staphylococcus aureus [31] = experiment: Disruption of cell membrane integrity in Staphylococcus aureus USA300 assessed as increase in red fluorescence at 1 to 4 times MIC by SYTO-9/PI dye based CLSM analysis; assay type: functional, organism-based
Staphylococcus aureus [32] = experiment: Effect on pyrimidine metabolism in Staphylococcus aureus USA300 at 4 times MIC by KEGG analysis; assay type: functional, organism-based
Staphylococcus aureus [33] = experiment: Effect on purine metabolism in Staphylococcus aureus USA300 at 4 times MIC by KEGG analysis; assay type: functional, organism-based
Staphylococcus aureus [34] = experiment: Effect on TCA cycle in Staphylococcus aureus USA300 at 4 times MIC by KEGG analysis; assay type: functional, organism-based
Staphylococcus aureus [35] = experiment: Effect on histidine metabolism in Staphylococcus aureus USA300 at 4 times MIC by KEGG analysis; assay type: functional, organism-based
Staphylococcus aureus [36] = experiment: Antibacterial activity against Staphylococcus aureus USA300 assessed as acceleration of TCA cycle measured by increase in icd mRNA level upto 0.25 ug/ml incubated for 6 hrs by RT-PCR analysis; assay type: functional, organism-based; conditions: dose <= 0.25 µg/ml
Staphylococcus aureus [37] = experiment: Induction of ROS accumulation in Staphylococcus aureus USA300 upto 0.25 ug/ml incubated for 1 hr by DCFH-DA dye based analysis; assay type: functional, organism-based; conditions: dose <= 0.25 µg/ml
Staphylococcus aureus [38] = experiment: Impairment of antioxidant defense system in Staphylococcus aureus USA300 upto 0.25 ug/ml by WST-8 assay; assay type: functional, organism-based; conditions: dose <= 0.25 µg/ml
Caco-2 = experiment: Cytotoxicity against human Caco-2 cells assessed as cell viability upto 8 ug/ml incubated for 6 hrs by LDH assay; assay type: toxicity, cell-based; conditions: caco-2, 6 h, dose < 8 µg/ml
J774.A1 = experiment: Cytotoxicity against mouse J774.A1 cells assessed as cell viability upto 8 ug/ml incubated for 6 hrs by LDH assay; assay type: toxicity, cell-based; conditions: j774.a1, 6 h, dose < 8 µg/ml
Staphylococcus aureus [39] = experiment: Antibacterial activity against methicillin-resistant Staphylococcus aureus infected in BALB/c mouse wound model assessed as reduction in bacterial load at 20 to 80 mg/kg administered topically on days 0, 3 and 6 measured after 6 days; assay type: functional, organism-based; conditions: dose 20-80 mg/kg, route top, time 6.0 day
Staphylococcus aureus [40] = experiment: Antibacterial activity against methicillin-resistant Staphylococcus aureus infected in BALB/c mouse wound model assessed as organised collagen fibers in skin tissue at 20 to 80 mg/kg administered topically on days 0, 3 and 6 measured for 6 to 12 days by Masson's trichome staining based analysis; assay type: functional, organism-based; conditions: dose 20-80 mg/kg, route top, time 6-12 day
Staphylococcus aureus [41] = experiment: Antibacterial activity against methicillin-resistant Staphylococcus aureus infected in BALB/c mouse wound model assessed as decrease in CD68 expression in skin tissue at 20 to 80 mg/kg administered topically on days 0, 3 and 6 measured after 12 days by IHC analysis; assay type: functional, organism-based; conditions: dose 20-80 mg/kg, route top, time 12.0 day
Staphylococcus aureus [42] = experiment: Antibacterial activity against methicillin-resistant Staphylococcus aureus infected in BALB/c mouse wound model assessed as reversal of inflammation-induced TNF-alpha level in wound at 20 to 80 mg/kg administered topically on days 0, 3 and 6 measured after 12 days by ELISA; assay type: functional, organism-based; conditions: dose 20-80 mg/kg, route top, time 12.0 day
Staphylococcus aureus [43] = experiment: Antibacterial activity against methicillin-resistant Staphylococcus aureus infected in BALB/c mouse wound model assessed as reversal of inflammation-induced IL-6 level in wound at 20 to 80 mg/kg administered topically on days 0, 3 and 6 measured after 12 days by ELISA; assay type: functional, organism-based; conditions: dose 20-80 mg/kg, route top, time 12.0 day

`CCn1c(=O)c(C(=O)Nc2nnc(-c3ccc(C)cn3)s2)c(O)c2ccccc21` showed an MIC (Staphylococcus aureus [1]) of 0.04 µg/mL (≈ 0.0982 µM), an MIC (Staphylococcus aureus [2]) of 0.03 µg/mL (≈ 0.0736 µM) and an MIC (Staphylococcus aureus [3]) of 0.02 µg/mL (≈ 0.0491 µM). The MIC (Staphylococcus aureus [4]) was 0.03 µg/mL (≈ 0.0736 µM), the MIC (Staphylococcus aureus [5]) was 0.03 µg/mL (≈ 0.0736 µM) and the MIC (Staphylococcus aureus [6]) was 0.02 µg/mL (≈ 0.0491 µM). It also gave an MIC (Staphylococcus aureus [7]) of 0.03 µg/mL (≈ 0.0736 µM), an MIC (Staphylococcus aureus [8]) of 0.02 µg/mL (≈ 0.0491 µM) and an MIC (Streptococcus suis [9]) of 0.04 µg/mL (≈ 0.0982 µM). The MIC (Klebsiella pneumoniae [10]) was greater than 512 µg/mL, the MIC (Klebsiella pneumoniae [11]) was greater than 512 µg/mL and the MBC (Staphylococcus aureus [12]) was 0.05 µg/mL (≈ 0.123 µM). The MBC (Staphylococcus aureus [13]) was 0.16 µg/mL (≈ 0.393 µM), the MBC (Staphylococcus aureus [14]) was 0.05 µg/mL (≈ 0.123 µM) and the MBC (Staphylococcus aureus [15]) was 0.23 µg/mL (≈ 0.564 µM). For the same molecule, the MBC (Listeria monocytogenes [16]) was greater than 0.25 µg/mL, the MBC (Listeria monocytogenes [17]) was greater than 0.25 µg/mL and the MBC (Streptococcus suis [18]) was 0.1 µg/mL (≈ 0.245 µM). The MBC (Acinetobacter baumannii [19]) was greater than 512 µg/mL, the MBC (Acinetobacter baumannii [20]) was greater than 512 µg/mL and the MBC (Klebsiella pneumoniae [21]) was greater than 512 µg/mL. For the same molecule, the Activity (Staphylococcus aureus [22]) was roughly 100%, the Activity (Listeria monocytogenes [23]) was “Active; Bacteria Were Suppressed Or Completely Eliminated” and the inhibition (Staphylococcus aureus [24]) was “Active”. The inhibition (Listeria monocytogenes [25]) was “Dose-dependent-effect”, the Activity (Staphylococcus aureus [26]) was “Active” and the Activity (Staphylococcus aureus [27]) was “Active”. The Activity (Staphylococcus aureus [28]) was “Active”, the Activity (Staphylococcus aureus [29]) was “Active” and the Activity (Staphylococcus aureus [30]) was “Active”. The Activity (Staphylococcus aureus [31]) was “Active”, the Activity (Staphylococcus aureus [32]) was “Active” and the Activity (Staphylococcus aureus [33]) was “Active”. The Activity (Staphylococcus aureus [34]) was “Active”, the Activity (Staphylococcus aureus [35]) was “Active” and the Activity (Staphylococcus aureus [36]) was “Active”. For the same molecule, the Activity (Staphylococcus aureus [37]) was “Active”, the Activity (Staphylococcus aureus [38]) was “Active” and the Activity (Caco-2) was “Non-toxic”. The Activity (J774.A1) was “Non-toxic”, the Activity (Staphylococcus aureus [39]) was “inactive” and the Activity (Staphylococcus aureus [40]) was “Active”. For the same molecule, the Activity (Staphylococcus aureus [41]) was “Active”, the Activity (Staphylococcus aureus [42]) was “Active” and the Activity (Staphylococcus aureus [43]) was “Active”.

— ChEMBL document CHEMBL6121054, “Discovery of Metabolic Reprogramming 2-Quinolones as Effective Antimicrobials for MRSA-Infected Wound Therapy” (J Med Chem, 2025)
